logP	Structure (SMILES)
4.75	CCOc1ccc(C=Cc2ccc3cccc(O)c3n2)cc1
4.8	CCOc1ccccc1C=Cc1ccc2cccc(O)c2n1
4.18	Oc1cccc(C=Cc2ccc3cccc(O)c3n2)c1
9.69	Oc1c(Cl)cc(Cl)c2ccc(C=Cc3ccc(C=Cc4ccc5c(Cl)cc(Cl)c(O)c5n4)cc3)nc12
5.69	Clc1ccccc1C=Cc1ccc2cccc(Cl)c2n1
5.44	Oc1cc(O)cc(C=Cc2ccc3c(Cl)cc(Cl)c(O)c3n2)c1
5.35	Oc1ccccc1C=Cc1ccc2c(Cl)cc(Cl)c(O)c2n1
3.67	Oc1ccc(C=Cc2ccc3cccc(O)c3n2)c(O)c1
5.72	Oc1ccc(C=Cc2ccc3c(Cl)cc(Cl)c(O)c3n2)cc1
4.99	Oc1cccc2ccc(C=Cc3ccccc3Cl)nc12
6.49	Oc1c(Cl)cc(Cl)c2ccc(C=Cc3ccccc3Cl)nc12
5.17	Oc1ccc(C=Cc2ccc3c(Cl)cc(Cl)c(O)c3n2)c(O)c1
4.48	Oc1ccccc1C=Cc1ccc2ccccc2n1
6.25	CCOc1ccc(C=Cc2ccc3c(Cl)cc(Cl)c(O)c3n2)cc1
6.28	CCOc1ccccc1C=Cc1ccc2c(Cl)cc(Cl)c(O)c2n1
5.55	Oc1ccc(C=Cc2ccc3c(Cl)cc(Cl)c(O)c3n2)cc1O
